The record followed here is paper PMC8038350, “Nordihydroguaiaretic Acid as a Novel Substrate and Inhibitor of Catechol O-Methyltransferase Modulates 4-Hydroxyestradiol-Induced Cyto- and Genotoxicity in MCF-7 Cells” (Molecules, 2021).

The target of experiment [1] is T1, catechol O-methyl transferase (COMT) (Homo sapiens, UniProt P21964).
T1 construct: endogenous COMT in MCF-7 whole cell lysate
T1 sequence (P21964 1-271): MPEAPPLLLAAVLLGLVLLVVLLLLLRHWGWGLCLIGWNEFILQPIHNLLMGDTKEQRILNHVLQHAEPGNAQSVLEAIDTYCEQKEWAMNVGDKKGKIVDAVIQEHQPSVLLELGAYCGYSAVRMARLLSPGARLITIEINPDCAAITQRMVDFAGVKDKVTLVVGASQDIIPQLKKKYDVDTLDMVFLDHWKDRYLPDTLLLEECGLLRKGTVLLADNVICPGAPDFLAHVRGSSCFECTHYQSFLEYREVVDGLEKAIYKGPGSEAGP
As to the kind of experiment: 4-MeOE2 formation in MCF-7 cells/lysate; […] decrease at […]. Format: cell-based. To be noted: MCF7.

Experiment [2] deals with T2, catechol O-methyl transferase (COMT) (Homo sapiens, UniProt P21964).
T2 construct: recombinant human soluble COMT, hexahistidine-tagged
T2 sequence (P21964 51-271 limits assumed): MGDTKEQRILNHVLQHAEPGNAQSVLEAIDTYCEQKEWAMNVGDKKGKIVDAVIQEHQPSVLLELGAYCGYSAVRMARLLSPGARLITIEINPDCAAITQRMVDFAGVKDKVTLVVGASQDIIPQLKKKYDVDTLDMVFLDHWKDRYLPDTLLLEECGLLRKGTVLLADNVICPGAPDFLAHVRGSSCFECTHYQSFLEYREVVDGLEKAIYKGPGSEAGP
As to the kind of experiment: inhibition of recombinant COMT O-methylation of 4-OHE2 by HPLC-DAD (IC50 […]); also a substrate (Km […]). The experiment is classed as biochemical.

pKi: −log10 of the molar value.

In general, inhibition refers to the change of the read-out against control, counted positive when it falls. Read a low inhibition as a weak effect. As to `O=C(c1cc(O)c(O)c([N+](=O)[O-])c1)c1ccccc1F` [Ro 41-0960], the inhibition at 10 µM in experiment [1] stood at 88%.

Broadly, the pKi is the Ki on a negative log10 scale, so that one unit is a factor of ten. For the compound `C[C@H](Cc1ccc(O)c(O)c1)[C@H](C)Cc1ccc(O)c(O)c1` [compound 1, 4-[4-(3,4-dihydroxyphenyl)-2,3-dimethylbutyl] benzene-1,2-diol], the pKi in experiment [2] was 4.80.
